Test results as given in ChEMBL document CHEMBL1909046, “DrugMatrix in vitro pharmacology data”.

Key:
[1] = DRUGMATRIX: Glutamate, Kainate radioligand binding (ligand: [3H] Kainic acid); format: cell membranes, Rattus norvegicus, Wistar, Brain, Membrane; details: Not Active = under 50% inhibition at 10 µM
[2] = target: T1, Neuropeptide Y receptor type 1 (Homo sapiens, UniProt P25929); format: cell membranes, Membrane; details: sk-n-mc; further: in other assays of this panel Not Active means under 50% inhibition at 10 µM
T1 sequence (P25929 whole entry): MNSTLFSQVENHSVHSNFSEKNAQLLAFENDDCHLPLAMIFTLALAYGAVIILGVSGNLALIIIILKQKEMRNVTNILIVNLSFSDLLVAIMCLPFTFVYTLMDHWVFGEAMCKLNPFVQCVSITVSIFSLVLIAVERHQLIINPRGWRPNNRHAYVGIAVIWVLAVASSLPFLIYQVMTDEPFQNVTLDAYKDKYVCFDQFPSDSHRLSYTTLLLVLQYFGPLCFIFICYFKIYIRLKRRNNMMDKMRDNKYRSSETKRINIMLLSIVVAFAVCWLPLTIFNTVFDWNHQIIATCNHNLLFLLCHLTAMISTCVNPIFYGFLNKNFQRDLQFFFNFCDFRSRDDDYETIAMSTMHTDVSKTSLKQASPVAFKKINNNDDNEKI

Cannabinoid receptor 1 = Cannabinoid receptor 1 (Homo sapiens, UniProt P21554); format: cell membranes, Membrane; details: chem-1; further: in other assays of this panel Not Active means under 50% inhibition at 10 µM
[3] = DRUGMATRIX: Phosphodiesterase PDE3 enzyme inhibition (substrate: [3H]cAMP + cAMP); format: tissue-based, Homo sapiens; details: platelet; Not Active = under 50% inhibition at 10 µM
Endothelin-1 receptor = target: T2, Endothelin-1 receptor (Homo sapiens, UniProt P25101); format: cell membranes, Membrane; details: cho-k1; further: in other assays of this panel Not Active means under 50% inhibition at 10 µM
T2 sequence (P25101 whole entry): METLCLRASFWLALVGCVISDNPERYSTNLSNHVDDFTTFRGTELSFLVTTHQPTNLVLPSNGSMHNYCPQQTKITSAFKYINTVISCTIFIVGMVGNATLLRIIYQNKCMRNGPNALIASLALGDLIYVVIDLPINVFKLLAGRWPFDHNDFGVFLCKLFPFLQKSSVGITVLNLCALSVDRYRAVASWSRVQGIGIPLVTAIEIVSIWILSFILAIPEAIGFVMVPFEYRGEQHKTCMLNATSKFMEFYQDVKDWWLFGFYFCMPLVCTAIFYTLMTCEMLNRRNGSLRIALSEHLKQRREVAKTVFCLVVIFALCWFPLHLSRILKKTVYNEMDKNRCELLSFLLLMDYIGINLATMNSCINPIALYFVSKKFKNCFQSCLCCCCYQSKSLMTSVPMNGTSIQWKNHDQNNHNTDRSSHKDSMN

[4] = target: Delta-type opioid receptor (Homo sapiens, UniProt P41143); format: cell membranes, HEK293, Membrane; details: hek293; further: in other assays of this panel Not Active means under 50% inhibition at 10 µM
Neutrophil elastase = target: T3, Neutrophil elastase (Homo sapiens, UniProt P08246); format: tissue-based
T3 sequence (P08246 whole entry): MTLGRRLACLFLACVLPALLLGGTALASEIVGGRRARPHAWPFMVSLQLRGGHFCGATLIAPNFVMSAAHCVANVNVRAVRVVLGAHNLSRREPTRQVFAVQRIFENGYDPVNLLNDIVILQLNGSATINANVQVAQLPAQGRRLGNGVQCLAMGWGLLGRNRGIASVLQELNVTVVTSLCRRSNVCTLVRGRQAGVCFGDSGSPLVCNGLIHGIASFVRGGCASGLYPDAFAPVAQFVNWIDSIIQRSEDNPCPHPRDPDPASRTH

[5] = DRUGMATRIX: Calcium Channel Type L, Benzothiazepine radioligand binding (ligand: [3H] Diltiazem); format: cell membranes, Rattus norvegicus, Wistar, Brain, Membrane; details: Not Active = under 50% inhibition at 10 µM
Acetylcholinesterase = Acetylcholinesterase (Homo sapiens, UniProt P22303); test: DRUGMATRIX: Acetylcholinesterase enzyme inhibition (substrate: acetylthiocholine); format: cell-based, HEK293; details: hek293; Not Active = under 50% inhibition at 10 µM
[6] = target: T4, 5-hydroxytryptamine receptor 1A (Rattus norvegicus, UniProt P19327); format: cell membranes, CHO-K1, Membrane; further: in other assays of this panel Not Active means under 50% inhibition at 10 µM
T4 sequence (P19327 whole entry): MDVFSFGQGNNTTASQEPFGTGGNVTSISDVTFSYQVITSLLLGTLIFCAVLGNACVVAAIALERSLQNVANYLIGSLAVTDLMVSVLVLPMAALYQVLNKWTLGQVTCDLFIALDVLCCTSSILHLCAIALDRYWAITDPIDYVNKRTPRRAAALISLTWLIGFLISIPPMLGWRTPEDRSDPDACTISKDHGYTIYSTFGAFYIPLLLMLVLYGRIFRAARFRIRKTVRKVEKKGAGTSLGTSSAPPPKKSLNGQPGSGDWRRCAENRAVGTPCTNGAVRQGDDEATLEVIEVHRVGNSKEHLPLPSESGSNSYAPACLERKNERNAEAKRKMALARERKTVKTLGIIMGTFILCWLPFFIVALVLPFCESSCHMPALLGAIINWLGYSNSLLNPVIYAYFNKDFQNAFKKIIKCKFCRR

D(1A) dopamine receptor = D(1A) dopamine receptor (Homo sapiens, UniProt P21728); test: DRUGMATRIX: Dopamine D1 radioligand binding (ligand: [3H] SCH-23390); format: cell membranes, CHO, Membrane; details: Not Active = under 50% inhibition at 10 µM
D(3) dopamine receptor = D(3) dopamine receptor (Homo sapiens, UniProt P35462); test: DRUGMATRIX: Dopamine D3 radioligand binding (ligand: [3H] Spiperone); format: cell membranes, CHO, Membrane
[7] = target: T5, Muscarinic acetylcholine receptor M4 (Homo sapiens, UniProt P08173); format: cell membranes, CHO-K1, Membrane; details: cho-k1; further: in other assays of this panel Not Active means under 50% inhibition at 10 µM
T5 sequence (P08173 whole entry): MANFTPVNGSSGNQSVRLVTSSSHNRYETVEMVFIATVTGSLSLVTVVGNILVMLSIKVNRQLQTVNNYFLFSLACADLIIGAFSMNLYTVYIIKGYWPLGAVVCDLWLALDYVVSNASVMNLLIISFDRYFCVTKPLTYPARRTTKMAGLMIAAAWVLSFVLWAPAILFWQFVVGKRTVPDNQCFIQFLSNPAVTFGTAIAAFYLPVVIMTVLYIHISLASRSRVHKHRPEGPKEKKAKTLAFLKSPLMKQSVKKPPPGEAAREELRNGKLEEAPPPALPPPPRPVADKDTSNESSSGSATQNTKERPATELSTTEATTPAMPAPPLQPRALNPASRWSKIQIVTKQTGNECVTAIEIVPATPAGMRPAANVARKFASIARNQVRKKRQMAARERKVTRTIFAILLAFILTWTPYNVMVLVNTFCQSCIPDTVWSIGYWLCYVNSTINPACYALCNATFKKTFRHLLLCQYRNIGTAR

Acetylcholinesterase, sequence (P22303 whole entry): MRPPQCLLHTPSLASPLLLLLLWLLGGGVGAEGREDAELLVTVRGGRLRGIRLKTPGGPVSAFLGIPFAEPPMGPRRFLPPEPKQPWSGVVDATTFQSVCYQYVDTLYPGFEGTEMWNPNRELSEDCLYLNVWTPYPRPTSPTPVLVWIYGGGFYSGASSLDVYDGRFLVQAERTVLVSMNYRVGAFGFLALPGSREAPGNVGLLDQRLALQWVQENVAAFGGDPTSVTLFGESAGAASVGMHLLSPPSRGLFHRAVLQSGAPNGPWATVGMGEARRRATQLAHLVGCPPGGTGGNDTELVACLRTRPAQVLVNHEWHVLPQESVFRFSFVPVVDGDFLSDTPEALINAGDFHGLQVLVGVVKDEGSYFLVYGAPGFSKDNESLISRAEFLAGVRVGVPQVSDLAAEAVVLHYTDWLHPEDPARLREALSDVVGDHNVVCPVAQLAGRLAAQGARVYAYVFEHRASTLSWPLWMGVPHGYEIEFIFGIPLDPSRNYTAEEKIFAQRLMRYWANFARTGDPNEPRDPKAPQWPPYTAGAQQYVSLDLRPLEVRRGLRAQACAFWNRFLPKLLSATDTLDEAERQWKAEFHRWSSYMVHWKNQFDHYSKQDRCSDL
D(1A) dopamine receptor, sequence (P21728 whole entry): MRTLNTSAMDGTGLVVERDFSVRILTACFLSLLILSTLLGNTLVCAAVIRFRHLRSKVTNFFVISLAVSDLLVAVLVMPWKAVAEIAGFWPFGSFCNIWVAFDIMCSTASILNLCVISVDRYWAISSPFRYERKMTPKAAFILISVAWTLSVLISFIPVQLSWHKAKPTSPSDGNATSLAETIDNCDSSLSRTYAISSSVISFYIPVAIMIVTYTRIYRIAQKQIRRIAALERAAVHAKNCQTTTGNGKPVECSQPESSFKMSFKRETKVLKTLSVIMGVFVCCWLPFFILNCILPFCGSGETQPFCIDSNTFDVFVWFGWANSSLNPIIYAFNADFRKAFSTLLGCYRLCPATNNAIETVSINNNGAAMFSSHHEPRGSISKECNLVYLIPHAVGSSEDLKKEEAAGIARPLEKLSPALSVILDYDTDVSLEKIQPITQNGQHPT
Delta-type opioid receptor, sequence (P41143 whole entry): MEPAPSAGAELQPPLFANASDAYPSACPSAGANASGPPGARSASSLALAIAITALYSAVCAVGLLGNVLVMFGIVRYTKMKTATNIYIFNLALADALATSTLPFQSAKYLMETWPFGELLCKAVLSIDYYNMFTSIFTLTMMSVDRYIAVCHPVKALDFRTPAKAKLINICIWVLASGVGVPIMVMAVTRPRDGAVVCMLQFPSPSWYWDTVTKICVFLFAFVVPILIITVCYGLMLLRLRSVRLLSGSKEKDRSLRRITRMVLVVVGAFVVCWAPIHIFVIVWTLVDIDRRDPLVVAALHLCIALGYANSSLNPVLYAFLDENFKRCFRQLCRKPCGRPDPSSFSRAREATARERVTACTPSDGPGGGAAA
Cannabinoid receptor 1, sequence (P21554 whole entry): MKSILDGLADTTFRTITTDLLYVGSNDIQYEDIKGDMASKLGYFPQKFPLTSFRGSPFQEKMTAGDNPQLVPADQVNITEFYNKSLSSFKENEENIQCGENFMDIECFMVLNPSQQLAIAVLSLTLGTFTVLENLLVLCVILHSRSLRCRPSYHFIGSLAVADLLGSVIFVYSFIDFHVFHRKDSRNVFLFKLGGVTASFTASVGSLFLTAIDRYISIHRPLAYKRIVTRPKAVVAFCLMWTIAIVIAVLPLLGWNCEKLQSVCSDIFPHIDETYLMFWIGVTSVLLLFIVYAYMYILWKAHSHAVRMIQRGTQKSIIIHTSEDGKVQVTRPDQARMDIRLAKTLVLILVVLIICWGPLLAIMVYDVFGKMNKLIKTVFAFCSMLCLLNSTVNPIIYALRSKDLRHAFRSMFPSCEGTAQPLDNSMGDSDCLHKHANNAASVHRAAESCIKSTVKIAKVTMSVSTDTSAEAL
D(3) dopamine receptor, sequence (P35462 whole entry): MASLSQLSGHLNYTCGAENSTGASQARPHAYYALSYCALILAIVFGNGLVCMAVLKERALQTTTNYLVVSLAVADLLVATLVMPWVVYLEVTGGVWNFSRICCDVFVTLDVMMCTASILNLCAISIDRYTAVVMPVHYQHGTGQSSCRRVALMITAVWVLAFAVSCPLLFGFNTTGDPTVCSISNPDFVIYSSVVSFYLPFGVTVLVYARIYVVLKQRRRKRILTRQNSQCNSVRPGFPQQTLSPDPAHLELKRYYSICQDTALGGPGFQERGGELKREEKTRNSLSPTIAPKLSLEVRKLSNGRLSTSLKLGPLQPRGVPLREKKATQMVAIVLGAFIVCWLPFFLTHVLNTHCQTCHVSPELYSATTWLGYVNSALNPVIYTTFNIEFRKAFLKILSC

Row | Compound | IC50 [1] | Ki [1] | IC50 [2] | IC50 (Cannabinoid receptor 1) | IC50 [3] | Ki [3] | IC50 (Endothelin-1 receptor) | IC50 [4] | IC50 (Neutrophil elastase) | IC50 [5] | Ki [5] | IC50 (Acetylcholinesterase) | IC50 ([6]; cho-k1) | IC50 (D(1A) dopamine receptor; cho) | IC50 (D(3) dopamine receptor; cho) | IC50 [7] | other results
1 | CCc1ccc(C(=O)C(C)CN2CCCCC2)cc1 (configuration not stated) [EPERISONE] | Not Active | Not Active | Not Active | Not Active | Not Active | Not Active | Not Active | Not Active | Not Active | Not Active | Not Active | Not Active | Not Active | Not Active | Not Active | Not Active | 
2 | C=C1CC[C@H](O)C/C1=C/C=C1\CCC[C@]2(C)[C@@H]([C@H](C)/C=C/[C@H](C)C(C)C)CC[C@@H]12 [ERGOCALCIFEROL] | Not Active | Not Active | Not Active | Not Active | Not Active | Not Active | Not Active | Not Active | Not Active | Not Active | Not Active | Not Active | Not Active | Not Active | Not Active | Not Active | 
3 | CN1C[C@H](C(=O)N[C@]2(C)O[C@@]3(O)[C@@H]4CCCN4C(=O)[C@H](Cc4ccccc4)N3C2=O)C=C2c3cccc4[nH]cc(c34)C[C@H]21 [ERGOTAMINE] | Not Active | Not Active | Not Active | Not Active | Not Active | Not Active | Not Active | Not Active | Not Active | Not Active | Not Active | Not Active |  |  |  | Not Active | IC50 ([6]; read-out: IC50): 0.774 nM; Ki ([6]; read-out: Ki): 0.443 nM; IC50 (D(1A) dopamine receptor; read-out: IC50): 1730 nM; Ki (D(1A) dopamine receptor; read-out: Ki): 864 nM; IC50 (D(3) dopamine receptor; read-out: IC50): 4.31 nM; Ki (D(3) dopamine receptor; read-out: Ki): 1.46 nM
4 | CCc1cccc2c3c([nH]c12)C(CC)(CC(=O)O)OCC3 (configuration not stated) [ETODOLAC] | Not Active | Not Active | Not Active | Not Active | Not Active | Not Active | Not Active | Not Active | Not Active | Not Active | Not Active | Not Active | Not Active | Not Active | Not Active | Not Active | 
5 | Cc1c(-c2ccccc2)oc2c(C(=O)OCCN3CCCCC3)cccc2c1=O [FLAVOXATE] | Not Active | Not Active | Not Active | Not Active | Not Active | Not Active | Not Active | Not Active | Not Active | Not Active | Not Active | Not Active | Not Active | Not Active | Not Active | Not Active | 
6 | Nc1nc(=O)[nH]cc1F [FLUCYTOSINE] | Not Active | Not Active | Not Active | Not Active | Not Active | Not Active | Not Active | Not Active | Not Active | Not Active | Not Active | Not Active | Not Active | Not Active | Not Active | Not Active | 
7 | O=C1OC2(c3ccc(O)cc3Oc3cc(O)ccc32)c2ccccc21 [FLUORESCEIN] | Not Active | Not Active | Not Active | Not Active | Not Active | Not Active | Not Active | Not Active | Not Active | Not Active | Not Active | Not Active | Not Active | Not Active | Not Active | Not Active | 
8 | CC(=O)[C@@]1(O)CC[C@H]2[C@@H]3C[C@H](C)C4=CC(=O)C=C[C@]4(C)[C@@]3(F)[C@@H](O)C[C@@]21C [FLUOROMETHOLONE] | Not Active | Not Active | Not Active | Not Active | Not Active | Not Active | Not Active | Not Active | Not Active | Not Active | Not Active | Not Active | Not Active | Not Active | Not Active | Not Active | 
9 | O=c1[nH]cc(F)c(=O)[nH]1 [FLUOROURACIL] | Not Active | Not Active | Not Active | Not Active | Not Active | Not Active | Not Active | Not Active | Not Active | Not Active | Not Active | Not Active | Not Active | Not Active | Not Active | Not Active | 
